# Experiments:
# [1] = system: progerin; experiment: progerin mRNA expression by quantitative PCR in AG01972 cells; format: cell-based, human; details: 48 h
# Protocol: (§1) The AG01972 primary HGPS cell line was obtained from Coriell Cell Repositories (New Jersey, USA). Human dermal fibroblasts (HDF) were isolated from juvenile foreskins and termed 2DD was also used. AG01972 cells were cultured in T75 tissue culture treated flasks (Fisher, UK) containing Dulbecco's […]+Glutamax (Invitrogen, UK), supplemented with 15% fetal calf serum and 1% penicillin/streptomycin (Invitrogen) in an humidified, 37° C., 5% CO2/95% air incubator. The cells were passaged twice weekly. Cells were plated at a density of 2×10^5 into 9 cm dishes containing 13 mm diameter glass coverslips. Six hours after seeding, the AG01972 cells were treated with 0.1% dimethyl sulfoxide, different concentrations of DHB. DHB treatment was repeated 24 h after the initial treatment. The cells were analyzed after 48 h of treatment.
# (§2) Total RNA was isolated using a RNeasy Micro extraction kit according to the manufacturer's protocol. An on-column DNase I digestion was performed to avoid genomic DNA amplification. […] The quantitative PCR analysis was performed following the manufacturers' instructions.
# (§3) Quantification of gene expression was based on the DeltaCt Method and normalized on 18S expression. […]
# (§4) The protein levels of A-type lamins and mRNA expressions of lamin A and progerin were measured 48 h after DHB treatment on AG01972 cells. […]
# [2] = system: lamin A; experiment: lamin A mRNA expression by quantitative PCR in AG01972 cells; format: cell-based, human; details: 48 h
# Protocol: as §1, §2, §3, §4
# [3] = system: lamin A; experiment: lamin A mRNA expression by quantitative PCR in 2DD cells; format: cell-based, human; details: 5 μmol/L DHB
# Protocol: as §1, §2, §3, §4
# [4] = system: progerin; experiment: progerin protein level by western blot in AG01972 cells; format: cell-based, human; details: 5 μmol/L DHB
# Protocol: (§5) Whole-cell lysates of AG01972 cells and 2DD cells were collected, separated by SDS polyacrylamide gel electrophoresis, and transferred onto polyvinylidene fluoride membrane using the liquid transfer method. The blots were blocked in 10% skim milk in Tween 0.1% tris-buffered saline 1×1 h at room temperature. The membranes were incubated during the night at 4° C. Antigen-antibody binding was detected using horseradish peroxidase-conjugated species-specific secondary antibodies, followed by enhanced chemiluminescence western blotting detection reagents. The western blot results were quantified using ImageJ software. FIG. 2a is a graph of protein levels of lamin A and progerin in AG01972 cells of DHB supplemented group and non-supplemented group. FIG. 2b is a graph of protein levels of lamin A and progerin in 2DD cells of DHB supplemented group and non-supplemented group.
# [5] = system: lamin A; experiment: lamin A protein level by western blot in AG01972 cells; format: cell-based, human; details: 5 μmol/L DHB
# Protocol: as §5
# [6] = system: lamin A; experiment: lamin A protein level by western blot in 2DD cells; format: cell-based, human; details: 5 μmol/L DHB
# Protocol: as §5
# [7] = system: 2BS cells; experiment: cell proliferation (CCK-8) of PD45 2BS cells; format: cell-based, human
# Protocol: (§6) Human diploid fibroblast 2BS and WI38 cells were isolated from fetal lung fibroblast tissue. These cell lines were purchased from commercially available sources. Cells were grown in Dulbecco's Modification Eagle's Minimum Essential Medium (DMEM, Life Technologies Inc.) supplemented with 10% fetal bovine serum (FBS; Gibco), 2 mm glutamine, 100 U/ml penicillin, and 100 μg/ml streptomycin, in a humidified atmosphere with 5% CO2 at 37° C. These cells were considered as young at PD30 or below and fully senescent at PD50 or above Cell proliferation was assayed using the CCK-8 method. […] The absorbance values of each well were measured at day 0 (4 h after plating) and on days 1, 2, 3, 4, 5, and 6. […] At the indicated points, cells were harvested with 10% CCK-8 for one hour, and the absorbance was measured at 490 nm. Each data point was measured five times, and each curve was repeated more than three times. […] FIG. 3a is a graph of effect of DHB at different concentrations on the proliferation of PD45 2BS cells and WI38 cells measured by […]. […] FIG. 3d is a graph of quantification of SA-β-gal-positive cell rate of 2BS cells. Quantification analysis of SA-β-gal in FIG. 3d is shown that DHB (about 9%) could delay or reverse the population senescence of 2BS cells remarkably, as compared to the PD 45-DMEM group (about 55%) and PD 45 group (about 60%).
# [8] = system: WI38 cells; experiment: cell proliferation (CCK-8) of PD45 WI38 cells; format: cell-based, human
# Protocol: as §6
# [9] = system: 2BS cells; experiment: senescence-associated β-galactosidase (SA-β-gal) assay in 2BS cells; format: cell-based, human; details: 2BS cells PD45, 0.300 μg/ml DHB; PD 45-DMEM group about 55%, PD 45 group about 60%
# Protocol: Human diploid fibroblast 2BS and WI38 cells were isolated from fetal lung fibroblast tissue. These cell lines were purchased from commercially available sources. Cells were grown in Dulbecco's Modification Eagle's Minimum Essential Medium (DMEM, Life Technologies Inc.) supplemented with 10% fetal bovine serum (FBS; Gibco), 2 mm glutamine, 100 U/ml penicillin, and 100 μg/ml streptomycin, in a humidified atmosphere with 5% CO2 at 37° C. These cells were considered as young at PD30 or below and fully senescent at PD50 or above Senescence-associated β-galactosidase (SA-β-gal) assay: 2B S cells (PD45) grown in DMEM with/without 0.300 μg/ml DHB concentration were stained according to the method of Dimri with minor modifications (Dimri, Lee et al. 1995). […] The average value of the percentage of SA-β-gal-positive cells for each set of samples was calculated based on three independent experiments. […] FIG. 3a is a graph of effect of DHB at different concentrations on the proliferation of PD45 2BS cells and WI38 cells measured by MTT-assay. […] FIG. 3d is a graph of quantification of SA-β-gal-positive cell rate of 2BS cells. Quantification analysis of SA-β-gal in FIG. 3d is shown that DHB (about 9%) could delay or reverse the population senescence of 2BS cells remarkably, as compared to the PD 45-DMEM group (about 55%) and PD 45 group (about 60%).
# [10] = compared with berberine (BBR), Feng et al. 2015; cited from earlier work
# [11] = different concentrations of DHB, normalized on 18S
compound,measurement,setting,value
"COc1ccc2c(c1OC)CN1CCc3cc4c(cc3C1=C2)OCO4 [DHB, Dihydroberberine]",concentration of maximum effect on progerin mRNA expression,[1],5 µmol/L
same,progerin mRNA expression compared with untreated cells,[1]; [11],dose-dependent decrease
same,concentration of maximum effect on lamin A mRNA expression,[2],5 µmol/L
same,lamin A mRNA expression compared with untreated cells,[2]; [11],dose-dependent decrease
same,lamin A mRNA expression,[3],decrease in lamin A mRNA expression
same,progerin protein content (western blot) compared with untreated cells,[4],significant decrease in progerin content
same,lamin A protein level (western blot) compared with untreated cells,[5],decrease in lamin A
same,lamin A protein level (western blot) compared with untreated cells,[6],decrease in lamin A
same,"effect on proliferation, time course","[7]; 2BS (PD45) cells, 0.3 μg/ml, seven days of incubation",promoted proliferation
same,optimum concentration for proliferation,"[7]; PD45 2BS cells, FIG. 3a",0.3 µg/mL
same,optimum concentration for proliferation,"[8]; PD45 WI38 cells, FIG. 3a",0.3 µg/mL
same,"effect on proliferation, time course","[8]; WI38 (PD45) cells, 0.3 μg/ml, seven days of incubation",promoted proliferation
same,SA-β-gal-positive cell rate,[9],about 9%
same,absorption,[10],improved absorption
same,oral bioavailability,[10],enhanced oral bioavailability

# Reference: patent US20230138246A1, “USE OF DIHYDROBERBERINE OR ITS DERIVATIVES FOR ANTI-AGING” (NANJING NUTRABUILDING BIO-TECH CO., LTD., priority 2021, published 2023)
